Measurements from a melting point compilation (Tetko et al.; mined from patent text by program, amines drawn as free bases though some values may be those of a salt).

`NS(=O)(=O)c1cc2c(c(Cl)c1Cl)OC(CCl)C2` (configuration not stated) gave a melting point of 195 to 196 °C.
`OC(CNC1=NCCN1)c1ccc(Cl)cc1` (configuration not stated) showed a melting point of 156 to 158 °C.
With `C=CCN(CC=C)c1ccc2[nH]c3cnc(C(=O)OCC)nc3c2c1` the melting point was 188 to 190 °C.
In the case of `O=c1n(CC(O)(Cn2cncn2)c2ccc(F)cc2F)cnn1-c1ccc(OC(F)(F)F)cc1` (racemic), the melting point was 128 to 130 °C.
For `O=C(Nc1cccc(S(=O)(=O)N2CCOCC2)c1)c1cnn2c(C(F)(F)F)cc(-c3ccc(C(F)(F)F)cc3)nc12`, the melting point was 233 °C.
Molecule `CCOC(=O)C1CCN(Cc2nc(NCc3ccc(OC)c(Cl)c3)c3c4c(oc3n2)CCCC4)CC1` has a melting point of 152 °C.
Molecule `C=CCc1cc(C(C)=O)c(O)cc1OCCCCC(=O)O` has a melting point of 110 to 111 °C.
Molecule `N#CCCN(N)c1cc2ccccc2[nH]1` has a melting point of 120 to 122 °C.
In the case of `COc1ccc(-c2cc(-c3ccccc3)[nH]c2C(=O)NCc2ccc(C(=O)NO)cc2)cc1OC`, the melting point was 134 to 136 °C.
Molecule `COc1ccc(CCNC(=O)CCC2(c3ccc(OC)c(OC)c3)SCCCS2)cc1OC` has a melting point of 135 to 136 °C.
In the case of `CCN(CC)CCNC(=O)c1cc(Cl)c(N)cc1OCCCN1C(=O)c2ccccc2C1=O`, the melting point was 141 to 143 °C.
In the case of `CN1COC(CC23CCC(c4ccccc42)c2ccccc23)C1` (configuration not stated), the melting point was 106 to 109 °C.
Molecule `COC(=O)NN=C(C)c1nc(-c2ccccc2)[nH]c1C` has a melting point of 201 to 202 °C.
Work on `c1ccc(C2OC3(CCNCC3)N3CCCCC23)cc1` (configuration not stated) yielded a melting point of 169 to 171 °C.
`CN1CC(C(C#N)(c2ccccc2)c2ccccc2)C1` showed a melting point of 113 to 115 °C.
`COc1ccc(C2c3ccccc3C(c3ccccc3)C2C(=O)O)cc1` (configuration not stated) gave a melting point of 164 to 166 °C.
In the case of `COc1cc(C2CN(c3cc4c(cc3F)ncc3c4c(=O)c(C(=O)O)cn3C)CCN2)ccc1OCc1ccccc1` (configuration not stated), the melting point was 280 °C.
Molecule `COC(=O)Cn1c(=O)[nH]c2ccc(C(=O)c3c(C)c(OC)c4ccccn34)cc2c1=O` has a melting point of 253 °C.
For `Brc1c(OCc2ccccc2)cccc1C1OCCCO1`, the melting point was 73 to 74 °C.
For `CC1(C)Cc2c(Cl)c(N)cc(C(=O)O)c2O1`, the melting point was 185 to 187 °C.
In the case of `Cc1cc(COc2nn(Cc3ccccc3)cc2C=O)ccc1OCc1nc(-c2ccco2)oc1C`, the melting point was 121 to 122 °C.
`CC1=NN=C(c2ccc([N+](=O)[O-])cc2)c2cc(Cl)c(Cl)cc2C1` showed a melting point of 231 to 233 °C.
Work on `CC(C)(C)c1cc(Sc2n[nH]c(=S)o2)cc(C(C)(C)C)c1O` yielded a melting point of 129 to 131 °C.
In the case of `O=C1C=C(Nc2cccc(F)c2)CCN1`, the melting point was 188 to 190 °C.
With `N#Cc1cnc2c(sc3c([N+](=O)[O-])cccc32)c1Cl` the melting point was 258 to 260 °C.
`COc1cc(C(=O)NC=NC(=O)ON(c2ccc(C)c(NC(=O)c3ccc(C=Cc4ccccc4)cc3)c2)C(C)(C)C)cc(OC)c1OC` showed a melting point of 166 °C.
With `CCn1c(=O)c(-c2cc(OC)cc(OC)c2)cc2cnc(SC)nc21` the melting point was 120 to 122 °C.
With `COc1ccc(-c2cc3ccccc3o2)cc1` the melting point was 145 to 147 °C.
`COc1c(CCc2ccc(NS(C)(=O)=O)cc2)cc(N2CCC(=O)NC2=O)cc1C(C)(C)C` showed a melting point of 233 to 234 °C.
With `O=C(NCCCn1cncn1)c1ccc([N+](=O)[O-])o1` the melting point was 176 to 177 °C.
In the case of `C=CCOn1c(=O)c2cc(F)c(N3CCCC3)cc2n(Cc2ccccc2)c1=O`, the melting point was 148 to 150 °C.
`O=C(NO)c1cc2ccccc2cn1` gave a melting point of 160 to 165 °C.
In the case of `COc1cc2c(CCN)c[nH]c2cc1F`, the melting point was 114 to 117 °C.
For `COc1ccc(C2(O)C(c3ccccc3Cl)SC3=NCCCCN32)cc1OC` (configuration not stated), the melting point was 98 to 100 °C.
`COc1ccc(-c2sc(NC(C)=O)nc2C)cc1S(N)(=O)=O` showed a melting point of 342 °C.
Molecule `CCCN1C(=O)CN=C(c2cccc(C(F)(F)F)c2)c2cc(OC)c(OC)cc21` has a melting point of 135 to 137 °C.
With `Cn1cc(C2CCC3(CC2)OCCO3)c2cc(C#N)ccc21` the melting point was 170 to 172 °C.
In the case of `CNC(=O)c1cc(F)ccc1CNC(=O)c1nc2n(c(=O)c1OCc1ccccc1)CCOC2`, the melting point was 189 to 190 °C.
`CCOc1cc(CCl)nc(C)n1` gave a melting point of 29 °C.
`CNC(=O)c1cccc(NC(=O)COc2ccccc2Cl)c1` showed a melting point of 172 to 173 °C.
`CCOC(=O)c1cc2cc(OCCCS(C)(=O)=O)cc(NS(=O)(=O)c3ccccn3)c2[nH]1` showed a melting point of 194 to 195 °C.
`CCC(=NOC)C1=C(O)CC(c2ccc(NS(C)(=O)=O)cc2)CC1=O` (configuration not stated) gave a melting point of 150 to 151 °C.
Work on `O=C(O)c1ncc2[nH]c3c([N+](=O)[O-])cc([N+](=O)[O-])cc3c2n1` yielded a melting point of 269 to 272 °C.
`O=C1CCN(CCCn2c(=O)[nH]c3ccccc32)CC1` gave a melting point of 134 to 136 °C.
`Cc1ccccc1C(=O)P(=O)(c1ccccc1)c1ccccc1` gave a melting point of 107 °C.
`O=C1CCC(N2C(=O)c3ccc(CNC(=O)c4ccccn4)cc3C2=O)C(=O)N1` (configuration not stated) showed a melting point of 212 to 214 °C.
In the case of `CC(=O)Nc1cccc2c1SC(C)C2` (configuration not stated), the melting point was 125 to 127 °C.
Molecule `COCc1ccc(C2(O)CCN(CC(O)c3cc(C)c(O)cc3C)CC2)cc1` (configuration not stated) has a melting point of 166 °C.
`CS(=O)(=O)c1ccc(C(=O)c2cc(-c3cccnc3)c(N3CCOCC3)s2)cc1` gave a melting point of 147 °C.
In the case of `O=C(O)CC1(CC(=O)O)c2ccccc2C(=O)c2ccccc21`, the melting point was 230 to 232 °C.
Work on `CCn1c2c(c3ccccc31)S(=O)(=O)N(C)C(C(=O)Nc1ccccn1)=C2O` yielded a melting point of 232 °C.
In the case of `CC(=NNc1ccc(C2=NNC(=O)CC2C)cc1)c1ccc(O)cc1O` (configuration not stated), the melting point was 259 to 261 °C.
Molecule `Cc1nn(-c2ccccn2)c2nc3ccccc3c(Cl)c12` has a melting point of 157 to 159 °C.
`CCCCCCCCCN1C(=O)C=CC1=O` showed a melting point of 45 to 47 °C.
Molecule `CC(C)Oc1cc(COc2ccc(C(F)(F)F)cc2)cc(COc2cc(CCC(=O)O)n(-c3ccccc3)n2)c1` has a melting point of 55 to 58 °C.
Work on `CC(=O)Oc1ccccc1C(=O)Nc1ncc(S(C)(=O)=O)s1` yielded a melting point of 173 to 175 °C.
With `CC(C#N)CNc1ccccc1[N+](=O)[O-]` (configuration not stated) the melting point was 44 to 47 °C.
Molecule `Brc1cccc(-c2ccnn2-c2ccc3c(c2)OCO3)c1` has a melting point of 195 to 197 °C.
For `Cc1ccc(S(=O)(=O)NC(=O)OCCc2ccc(-n3c(CCCc4cccnc4)nc4cc(C(F)(F)F)c(Cl)cc43)cc2)cc1`, the melting point was 90 to 95 °C.
For `CC(C)C(C)(C(N)=O)N1C(=O)c2ccc3ccn(C)c3c2C1=O` (configuration not stated), the melting point was 184 to 189 °C.
For `C=C(Cl)C[C@@H](CC(=O)N(CC(=O)N(C)CCc1ccccn1)CC1CCCCC1)C(=O)N[C@@H](CC1CCCCC1)[C@@H](O)[C@@H](O)CC(C)C`, the melting point was 140 °C.
For `O=C(Cn1c(-c2ccc(Cl)cc2)nc2cccnc21)NCC1CC1`, the melting point was 228 to 229 °C.
In the case of `COc1cccc(-c2cc(C(C)(C)C)c(O)c(C(C)(C)C)c2)c1`, the melting point was 96 to 98 °C.
Molecule `Cc1cc(NC(=O)C2=C(O)c3ccc4ccccc4c3S(=O)(=O)N2C)no1` has a melting point of 253 °C.
Molecule `COc1cccc(C23CCCC=C2C(=O)N(C)C(=O)C3)c1` (configuration not stated) has a melting point of 139 to 141 °C.
For `O=C1CN(c2cccc(OCc3ccc(F)cc3)c2)NC(=O)N1`, the melting point was 73 to 75 °C.
`CC(=O)c1cc(-c2ccncc2)sc1Oc1ccccc1` gave a melting point of 103 to 105 °C.
For `CCOC(=O)c1c(N2CCN(CCO)CC2)c2cc(Cl)ccc2[nH]c1=O`, the melting point was 130 to 134 °C.
`COc1ccc(C(=O)N2CCc3cc(O)c(OC)cc3C2=O)cc1` showed a melting point of 224 to 225 °C.
`COc1ncccc1C(=O)NCCc1ccc(CC(=O)O)cc1` showed a melting point of 157 to 158 °C.
For `NC(=O)Cc1c(CCN(Cc2ccccc2)Cc2ccccc2)[nH]c2ccccc12`, the melting point was 135 to 136 °C.
Work on `O=C(CNC(=O)c1nc2ccc(Oc3cccc(C(F)(F)F)c3)cc2cc1OCc1ccccc1)OCc1ccccc1` yielded a melting point of 103 to 105 °C.
In the case of `CCCCCCCCCCCCCCOc1ccc(CCN(C(C)=O)c2cccc(Cc3nccs3)c2)cc1`, the melting point was 46 to 50 °C.
`COc1nc(C)cc2nc(S(=O)(=O)Nc3nn(C)c4ccccc34)nn12` gave a melting point of 181 to 183 °C.
Work on `c1ccc(OC2CCN(CCc3c[nH]c4ccccc34)CC2)cc1` yielded a melting point of 123 to 125 °C.
`COc1ccc(C(=O)N[C@H](C(=O)N2CCC[C@H]2C(=O)N[C@@H](C(C)C)[C@@H](O)C(F)(F)F)C(C)C)cc1` gave a melting point of 168 to 170 °C.
`c1ccc(OCc2ccc3ccccc3n2)c(OCCCc2nnn[nH]2)c1` gave a melting point of 137 to 140 °C.
`CCOC(=O)c1c(CC(=O)O)n(-c2ccc(OC(C)C)cc2)c2ccc(Oc3nc(C)ccc3C#N)cc12` gave a melting point of 179 °C.
In the case of `O=C(O)Cc1ccc(NC(=O)c2ccccc2)cc1`, the melting point was 207 to 208 °C.
`COc1cc(Nc2ncc3c(n2)C(C)(c2ccccc2)CCC3)ccc1-n1cnc(C)c1` (configuration not stated) showed a melting point of 207 to 209 °C.
In the case of `CN(Cc1cccc2c1C(=O)N(C1CCC(=O)NC1=O)C2=O)C(=O)Nc1ccccc1` (configuration not stated), the melting point was 226 to 228 °C.
In the case of `Cc1cc(-c2ccc(Cl)cc2)nc2c(-c3nc(-c4ccc(S(N)(=O)=O)s4)no3)cnn12`, the melting point was 253 °C.
`O=Cc1ccc(N(c2ccccc2)c2ccccc2)c2ccccc12` showed a melting point of 107 to 110 °C.
Molecule `O=C(O)c1cc(OCCCCCCc2cccc(OCc3ccccc3)c2OCc2ccccc2)ccc1O` has a melting point of 97 to 100 °C.
For `OC(CCl)COc1cccc2sncc12` (configuration not stated), the melting point was 104 to 106 °C.
`COC(=O)c1cc(-c2ccc(F)c(C)c2)nn(Cc2ccccc2)c1=O` showed a melting point of 109 to 110 °C.
Molecule `CN(C)NC(=O)C1(N2C(=O)c3cccc(Cl)c3C2=O)CCCCC1` has a melting point of 184 to 185 °C.
In the case of `COc1nc(C)cnc1NS(=O)(=O)c1cccnc1-c1ccc(I)cc1`, the melting point was 180 to 183 °C.
`CC12C=CC(=O)C=C1C(N)CC1C2CCC2(C)C(=O)CCC12` (configuration not stated) showed a melting point of 186 to 191 °C.
`c1ccc(COc2ccc(-c3nc(COc4cccc(CCCn5ccnc5)c4)co3)cc2)cc1` gave a melting point of 144 to 145 °C.
With `CN(CC(=O)Nc1ccccc1N)C(=O)OC(C)(C)C` the melting point was 134 to 136 °C.
Work on `COC(=O)C1=Cc2cc([N+](=O)[O-])ccc2N(C)CCC1` yielded a melting point of 127 to 129 °C.
`Nc1ccc2ccc(Oc3cccnc3)nc2n1` gave a melting point of 178 °C.
Work on `CNC(=O)Sc1ncc(Cl)cn1` yielded a melting point of 115 °C.
`NC(=O)C1CCc2c(C(=O)c3cccs3)cccc21` (configuration not stated) showed a melting point of 164 to 166 °C.
For `CC(C)Oc1ccc2c(c1)N(CCCN1CCC(CCO)CC1)c1cccc(S(C)(=O)=O)c1S2`, the melting point was 50 °C.
`CC(C)(C)OC(=O)N[C@@H](CCCCN=C=O)C(=O)N1CC(F)(F)C(F)(F)C1` showed a melting point of 68 to 70 °C.
